From patent publication US20070275855A1, “Herbicidal Composition” (ISHIHARA SANGYO KAISHA, LTD., priority 2004, published 2007)

Key:
Type in all cases: in vivo
[1] = system: Japanese bulrush (Scirpus juncoides); experiment: Test Example 4: paddy pot test, submerged application at 2.2 to 2.8 leaf stage; settings: for Growth inhibition rate (%) Observed: 2.2 to 2.8 leaf stage, 29 days after application
Source text: (§1) Growth inhibition rate (%)=0% (equivalent to the non-treated area) to 100% (complete kill)
Paddy field soil was put into a 1/1,700 are pot, and seeds of Japanese bulrush (Scirpus juncoides) were sown and left to stand under an irrigated condition with a water depth of 3.5 cm. When Japanese bulrush reached 2.2 to 2.8 leaf stage, a wettable powder of compound A2, a wettable powder of compound B1 and an emulsifiable concentrate of benfuresate were, respectively, diluted with water and applied under submerged condition so that the active ingredients became the prescribed amounts, respectively. The state of growth was visually observed 29 days after application and evaluated in the same manner as in the above Test Example 1.

[2] = system: barnyardgrass (Echinochloa oryzicola vasing); experiment: Test Example 1: paddy pot test, submerged application on the next day after sowing; settings: for Growth inhibition rate (%) Observed: next day after sowing, 21 days after application
Source text: (§2) When the herbicidal activity in a case where two active ingredients are combined, is larger than the simple sum of the respective herbicidal activities of the two active ingredients (the expected activity), it is called a synergistic effect. The activity expected by the combination of two active ingredients can be calculated as follows (Colby S. R., “Weed”, vol. 15, p. 20-22, 1967). E=α+β−(α×β÷100) where α: growth inhibition rate when treated with x (g/a) of herbicide X,
(§3) β: growth inhibition rate when treated with y (g/a) of herbicide Y,
(§4) E: growth inhibition rate expected when treated with x (g/a) of herbicide X and y (g/a) of herbicide Y.
(§5) Namely when the actual growth inhibition rate (observed value) is larger than the growth inhibition rate by the above calculation (expected value), the activity by the combination can be regarded as showing a synergistic effect.
Paddy field soil was put into a 1/1,700 are pot, and seeds of barnyardgrass (Echinochloa oryzicola vasing) were sown and left to stand under an irrigated condition with a water depth of 3.5 cm. On the next day after the sowing, a wettable powder of compound A2 diluted with water and a microemulsion of compound B1 as it was were, respectively, applied under submerged condition so that the active ingredients became the prescribed amounts, respectively The state of growth was visually observed 21 days after application and the growth inhibition rate (%) evaluated in accordance with the following evaluation standard (observed value) and the growth inhibition rate (%) calculated by the above-mentioned Colby method (expected value) are shown in Table 1.
as §1

[3] = system: barnyardgrass (Echinochloa oryzicola vasing); experiment: Test Example 2: paddy pot test, submerged application at 2 leaf stage; settings: for Growth inhibition rate (%) Observed: 2 leaf stage, 18 days after application
Source text: as §2, §3, §4, §5, §1
(§6) Paddy field soil was put into a 1/10,000 are pot, and seeds of barnyardgrass (Echinochloa oryzicola vasing) were sown and left to stand under an irrigated condition with a water depth of 3.5 cm. When barnyardgrass reached 2 leaf stage, a wettable powder of compound A2 diluted with water and a microemulsion of compound B1 as it was were, respectively, applied under submerged condition so that the active ingredients became the prescribed amounts, respectively. The state of growth was visually observed 18 days after application and evaluated in the same manner as in the above Test Example 1.

[4] = system: barnyardgrass (Echinochloa oryzicola vasing); experiment: Test Example 5: paddy pot test, submerged application at 2.4 to 3.2 leaf stage
Source text: as §1
as §6, with “2.4 to 3.2” for “2”, “stage,” for “stage, a”, “powders” for “powder”, “A2 compound B1 and azimsulfuron were, respectively,” for “A2”, “and” for “and a microemulsion of compound B1 as it was were, respectively,”, “29” for “18”

[5] = system: barnyardgrass (Echinochloa oryzicola vasing); experiment: Test Example 3: paddy pot test, submerged application at 3 leaf stage; settings: 504 h, 21 days after application, read-out: Growth inhibition rate (%) Observed
Source text: as §2, §3, §4, §5, §1
Paddy field soil was put into a 1/10,000 are pot, and seeds of barnyardgrass (Echinochloa oryzicola vasing) were sown and left to stand under an irrigated condition with a water depth of 3.5 cm. […] The state of growth was visually observed 21 days after application and evaluated in the same manner as in the above Test Example 1.

[6] = Echinochloa oryzicola, 504 h, read-out: Growth inhibition rate (%) Observed
[7] = Echinochloa oryzicola, 432 h, read-out: Growth Inhibition rate (%) Observed
[8] = Schoenoplectiella juncoides, 696 h, read-out: Growth inhibition rate (%) Observed

CCS(=O)(=O)Oc1ccc2c(c1)C(C)(C)CO2 [Benfuresate, benfuresate, reference compound]
Growth inhibition rate (%) Observed ([1]; 6 g/a): 90%
Growth inhibition rate (%) Observed ([1]; 9 g/a): 89%

COCC(=O)OC(c1ncccc1S(=O)(=O)NC(=O)Nc1nc(OC)cc(OC)n1)C(C)F (stereo not drawn) [Compound A2, flucetosulfuron]
Growth inhibition rate (%) Observed ([2]; 0.1 g/a): 95%
Growth inhibition rate (%) Observed ([2]; 0.2 g/a): 98%
Growth inhibition rate (%) Observed ([3]; 0.05 g/a): 84%
Growth inhibition rate (%) Observed ([3]; 0.10 g/a): 98%
Growth inhibition rate (%) Observed ([3]; 0.15 g/a): 99%
Growth inhibition rate (%) Observed ([1]; 0.22 g/a): 87%
Growth inhibition rate (%) Observed ([4]; 0.11 g/a, 2.4 to 3.2 leaf stage, 29 days after application): 96%

CCOC(=O)C(Cl)Cc1cc(-n2nc(C)n(C(F)F)c2=O)c(F)cc1Cl (stereo not drawn) [Compound B1, carfentrazone-ethyl]
inhibition at 11.3 g/ha ([5]; 0.113 g/a): 0%
inhibition at 22.5 g/ha ([5]; 0.225 g/a): 0%
inhibition at 20 g/ha [2, 6]: 0%
inhibition at 30 g/ha [2, 6]: 0%
inhibition at 30 g/ha [3, 7]: 3%
inhibition at 45 g/ha [3, 7]: 8%
inhibition at 67.5 g/ha [3, 7]: 13%
inhibition at 101.2 g/ha [3, 7]: 18%
inhibition at 50 g/ha [1, 8]: 80%
inhibition at 100 g/ha [1, 8]: 100%
inhibition at 150 g/ha [1, 8]: 99%
inhibition at 37.5 g/ha ([4]; Echinochloa oryzicola, 696 h, read-out: Growth inhibition rate (%) Observed): 5%
